Laboratory results reported in article PMC9604729, “Unusual Tetrahydropyridoindole-Containing Tetrapeptides with Human Nicotinic Acetylcholine Receptors Targeting Activity Discovered from Antarctica-Derived Psychrophilic Pseudogymnoascus sp. HDN17-933” (Marine Drugs, 2022).
Where “and” joins values, the source holds several entries; their conditions need not be identical. Identical values can stand only once. Like-named read-outs stand apart in the source and are kept apart here. Square brackets hold non-standard residues; d marks the D form. Ends that are not written are not given here. Peptide text beside a SMILES is read from it. Tpi = O=C(O)[C@@H]1Cc2c([nH]c3ccccc23)CN1

Key:
HL60 cell lines = settings: cited from earlier work
human (h) α3β2 nAChR = target: T1, human (h) α3β2 nAChR (Homo sapiens, UniProt P17787+P32297); test: Two-electrode voltage clamp, inhibition of ACh-evoked currents at hα3β2 nAChR in Xenopus oocytes; type: cell-based; settings: for Relative current amplitude (h)α3β2: compound 100 µM, currents activated by 6 μM ACh, ratio ACh + compound to ACh alone, mean ± SD, n = 6–11
T1 construct: host or cells: Xenopus laevis oocytes, cRNA injected
T1 sequence (P32297 32-505): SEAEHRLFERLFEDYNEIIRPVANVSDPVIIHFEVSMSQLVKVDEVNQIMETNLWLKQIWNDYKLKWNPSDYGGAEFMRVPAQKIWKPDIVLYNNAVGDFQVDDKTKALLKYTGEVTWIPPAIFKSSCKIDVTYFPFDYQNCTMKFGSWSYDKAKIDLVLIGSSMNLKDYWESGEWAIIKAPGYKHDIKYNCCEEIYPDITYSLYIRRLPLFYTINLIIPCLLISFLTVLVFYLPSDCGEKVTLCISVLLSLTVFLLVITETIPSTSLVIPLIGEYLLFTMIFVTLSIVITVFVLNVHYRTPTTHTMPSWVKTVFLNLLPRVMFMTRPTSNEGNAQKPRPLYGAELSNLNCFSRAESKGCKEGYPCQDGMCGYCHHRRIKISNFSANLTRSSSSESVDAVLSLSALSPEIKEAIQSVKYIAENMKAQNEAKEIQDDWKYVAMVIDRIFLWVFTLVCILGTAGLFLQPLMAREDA
T1 sequence (P17787 26-502): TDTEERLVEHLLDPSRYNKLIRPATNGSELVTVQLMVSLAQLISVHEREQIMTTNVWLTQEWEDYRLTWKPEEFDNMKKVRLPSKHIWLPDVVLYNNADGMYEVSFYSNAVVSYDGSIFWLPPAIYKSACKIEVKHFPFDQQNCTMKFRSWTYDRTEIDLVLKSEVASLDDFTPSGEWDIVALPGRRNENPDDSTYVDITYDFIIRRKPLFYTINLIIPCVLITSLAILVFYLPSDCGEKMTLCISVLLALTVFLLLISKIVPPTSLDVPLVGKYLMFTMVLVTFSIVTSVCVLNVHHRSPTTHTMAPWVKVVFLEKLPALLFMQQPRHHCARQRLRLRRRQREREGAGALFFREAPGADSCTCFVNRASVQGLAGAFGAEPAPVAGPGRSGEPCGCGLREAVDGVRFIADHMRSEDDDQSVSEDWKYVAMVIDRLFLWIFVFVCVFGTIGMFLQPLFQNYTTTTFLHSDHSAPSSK
Experimental: (§1) All procedures were approved by the University of Wollongong Animal Ethics Committees (project number: AE2003). Female Xenopus laevis were sourced from Nasco (Fort Atkinson, WI, USA), and a maximum of four frogs were kept in a 15 L aquarium at 20–26 °C with 12 h light/dark cycle. Oocytes were obtained from five-year-old frogs anesthetized with 1.7 mg/mL ethyl 3-aminobenzoate methanesulfonate (pH 7.4 with NaHCO3). Stage V-VI oocytes (Dumont’s classification; 1200–1300 μm diameter) were defolliculated with 1.5 mg/mL collagenase Type II (Worthington Biochemical Corp., Lakewood, NJ, USA) at room temperature for 1–2 h in OR-2 solution containing (in mM): 82.5 NaCl, 2 KCl, 1 MgCl2 and 5 HEPES at pH 7.4.
(§2) The human muscle nAChR clones (α1, β1, γ, δ and ε) were purchased from Integrated DNA Technologies (Coralville, IA, USA), whereas the human α3, α9, α10, β2, and β4 clones were purchased from OriGene (Rockville, MD, USA), and all were subsequently inserted into the pT7TS vector. The human α4 and α7 clones were obtained from Prof. Jon Lindstrom (University of Pennsylvania, Philadelphia, PA, USA). Plasmid constructs of the human nAChR clones were linearized for in vitro mRNA synthesis using mMessage mMachine transcription kit (AMBION, Forster City, CA, USA).
(§3) Oocytes were injected with 5 ng cRNA for hα1β1γδ, hα1β1εδ, hα3β2, hα3β4 and hα4β2, 10 ng cRNA for hα7 nAChR, and 35 ng cRNA for hα9α10 nAChR (concentration confirmed spectrophotometrically and by gel electrophoresis). The muscle subunit cRNA ratio was 2:1:1:1 (α1:β1: γ/ε:δ), whereas the heteromeric α and β subunit cRNA ratio was 1:1, injected using glass pipettes pulled from glass capillaries (3-000-203 GX, Drummond Scientific Co., Broomall, PA, USA). Oocytes were incubated at 18 °C in sterile ND96 solution composed of (in mM): 96 NaCl, 2 KCl, 1 CaCl2, 1 MgCl2, and 5 HEPES at pH 7.4, supplemented with 5% fetal bovine serum, 50 mg/L gentamicin (GIBCO, Grand Island, NY, USA) and […] penicillin-streptomycin (GIBCO).
(§4) Electrophysiological recordings were carried out 2–5 days post cRNA microinjection. Two-electrode voltage clamp recordings of X. laevis oocytes expressing human nAChRs were performed at room temperature (21–24 °C) using a GeneClamp 500B amplifier and pClamp9 software interface (Molecular Devices, Sunnyvale, CA, USA) at a holding potential −80 mV. Voltage-recording and current-injecting electrodes were pulled from GC150T-7.5 borosilicate glass (Harvard Apparatus, Holliston, MA) and filled with 3 M KCl, giving resistances of 0.3–1 MΩ. Due to the Ca^2+ permeability of α9α10 nAChRs, 100 µM BAPTA-AM incubation was carried out before recording to prevent the activation of X. laevis oocyte endogenous Ca^2+-activated chloride channels. Oocytes expressing hα9α10 nAChRs were perfused with ND115 solution containing (in mM): 115 NaCl, 2.5 KCl, 1.8 CaCl2, and 10 HEPES at pH 7.4, whereas oocytes expressing all other nAChR subtypes were perfused with ND96 solution using a continuous Legato 270 push/pull syringe pump perfusion system (KD Scientific, Holliston, MA, USA) at a rate of 2 mL/min in an OPC-1 perfusion chamber of <20 µL volume (Automate Scientific, Berkeley, CA, USA).
(§5) Initially, oocytes were briefly washed with ND115/ND96 solution, followed by 3 applications of ACh at a half-maximal excitatory ACh concentration (EC50) for the nAChR subtypes (3 µM for hα4β2, 5 µM for hα1β1γδ and hα1β1εδ, 6 µM for hα3β2 and hα9α10, 100 µM for hα7 and 300 µM for hα3β4). Washout with bath solution was performed for 3 min between ACh applications. Oocytes were incubated with compounds for 5 min with the perfusion system turned off, followed by co-application of ACh and compound with flowing bath solution. All compound solutions were prepared in ND115/ND96 + 0.1% bovine serum albumin (BSA). Incubation with 0.1% BSA was performed to ensure that the BSA and the pressure of the perfusion system had no effect on nAChRs. […]

human (h) α4β2 nAChR = target: T2, human (h) α4β2 nAChR (Homo sapiens, UniProt P17787+P43681); test: Two-electrode voltage clamp, inhibition of ACh-evoked currents at hα4β2 nAChR in Xenopus oocytes; type: cell-based; settings: for Relative current amplitude (h)α4β2: compound 100 µM, currents activated by 3 μM ACh, ratio ACh + compound to ACh alone, mean ± SD, n = 6–11
T2 construct: Jon Lindstrom; β2: OriGene (clones); host or cells: Xenopus laevis oocytes, cRNA injected
Experimental: as §1, §2, §3, §4, §5

human (h) α3β4 nAChR = target: T3, human (h) α3β4 nAChR (Homo sapiens, UniProt P30926+P32297); test: Two-electrode voltage clamp, inhibition of ACh-evoked currents at hα3β4 nAChR in Xenopus oocytes; type: cell-based; settings: for Relative current amplitude (h)α3β4: compound 100 µM, currents activated by 300 μM ACh, ratio ACh + compound to ACh alone, mean ± SD, n = 6–11
T3 construct: host or cells: Xenopus laevis oocytes, cRNA injected
T3 sequence (P30926 22-498): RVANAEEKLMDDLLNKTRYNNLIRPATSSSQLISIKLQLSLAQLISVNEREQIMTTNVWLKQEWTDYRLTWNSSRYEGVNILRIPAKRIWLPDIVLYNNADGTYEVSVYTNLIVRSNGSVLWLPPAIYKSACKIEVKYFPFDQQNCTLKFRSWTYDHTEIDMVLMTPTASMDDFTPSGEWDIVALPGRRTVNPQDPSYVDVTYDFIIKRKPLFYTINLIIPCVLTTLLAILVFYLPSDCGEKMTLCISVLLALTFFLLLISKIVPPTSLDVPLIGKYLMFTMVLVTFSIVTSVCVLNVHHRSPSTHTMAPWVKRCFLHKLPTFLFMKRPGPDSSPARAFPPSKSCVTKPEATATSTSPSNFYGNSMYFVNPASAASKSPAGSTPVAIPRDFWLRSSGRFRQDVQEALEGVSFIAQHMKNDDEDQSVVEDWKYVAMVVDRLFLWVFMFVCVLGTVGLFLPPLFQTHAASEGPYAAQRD
T3 sequence (P32297 32-505): as the sequence (P32297 32-505) above
Experimental: as §1, §2, §3, §4, §5

human (h) α1β1εδ nAChR [1] = target: T4, human (h) α1β1εδ nAChR (Homo sapiens, UniProt P02708+P11230+Q04844+Q07001); test: Two-electrode voltage clamp, inhibition of ACh-evoked currents at hα1β1εδ nAChR in Xenopus oocytes; type: cell-based; settings: for Relative current amplitude (h) α1β1εδ: compound 100 µM, currents activated by 5 μM ACh, ratio ACh + compound to ACh alone, mean ± SD, n = 6–11
T4 construct: host or cells: Xenopus laevis oocytes, cRNA injected
Experimental: as §1, §2, §3, §4, §5
Target sequence in this assay (P02708 21-457 limits assumed): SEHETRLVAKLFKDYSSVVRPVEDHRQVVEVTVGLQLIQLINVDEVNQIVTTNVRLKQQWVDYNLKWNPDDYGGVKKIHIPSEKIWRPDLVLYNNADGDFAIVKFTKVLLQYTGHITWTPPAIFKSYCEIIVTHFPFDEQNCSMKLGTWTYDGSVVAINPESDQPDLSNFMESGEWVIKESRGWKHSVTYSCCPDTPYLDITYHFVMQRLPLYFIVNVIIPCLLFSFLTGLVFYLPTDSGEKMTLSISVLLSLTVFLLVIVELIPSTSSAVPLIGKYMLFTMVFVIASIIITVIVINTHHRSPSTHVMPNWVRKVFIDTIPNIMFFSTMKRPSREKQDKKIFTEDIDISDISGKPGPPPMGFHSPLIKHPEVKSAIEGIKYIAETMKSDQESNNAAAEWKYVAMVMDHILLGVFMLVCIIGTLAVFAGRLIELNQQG
Target sequence in this assay (P11230 24-501 limits assumed): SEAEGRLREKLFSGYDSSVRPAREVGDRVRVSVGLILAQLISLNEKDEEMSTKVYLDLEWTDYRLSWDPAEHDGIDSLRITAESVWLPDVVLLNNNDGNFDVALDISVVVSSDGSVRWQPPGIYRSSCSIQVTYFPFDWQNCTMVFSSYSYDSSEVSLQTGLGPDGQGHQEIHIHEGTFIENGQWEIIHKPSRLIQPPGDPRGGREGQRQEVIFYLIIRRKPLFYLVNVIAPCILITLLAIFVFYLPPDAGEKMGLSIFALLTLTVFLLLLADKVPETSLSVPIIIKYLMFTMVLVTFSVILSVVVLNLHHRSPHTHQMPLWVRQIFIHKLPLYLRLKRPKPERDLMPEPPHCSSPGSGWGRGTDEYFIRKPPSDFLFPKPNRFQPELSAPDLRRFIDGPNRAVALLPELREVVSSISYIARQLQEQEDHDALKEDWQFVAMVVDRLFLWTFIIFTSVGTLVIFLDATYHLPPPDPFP
Target sequence in this assay (Q04844 21-493 limits assumed): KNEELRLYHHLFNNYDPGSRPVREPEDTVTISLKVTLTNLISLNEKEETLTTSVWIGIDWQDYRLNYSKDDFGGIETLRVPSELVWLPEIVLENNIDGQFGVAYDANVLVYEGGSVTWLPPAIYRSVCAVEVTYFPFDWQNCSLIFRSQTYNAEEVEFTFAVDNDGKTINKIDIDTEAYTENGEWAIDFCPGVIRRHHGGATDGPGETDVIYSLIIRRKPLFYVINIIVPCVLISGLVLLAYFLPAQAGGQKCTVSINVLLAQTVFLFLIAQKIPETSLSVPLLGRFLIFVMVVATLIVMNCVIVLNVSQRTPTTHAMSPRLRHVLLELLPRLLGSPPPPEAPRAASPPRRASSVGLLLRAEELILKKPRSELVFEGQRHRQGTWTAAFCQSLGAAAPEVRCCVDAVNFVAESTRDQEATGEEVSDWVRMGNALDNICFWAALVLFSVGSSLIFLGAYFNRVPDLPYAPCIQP
Target sequence in this assay (Q07001 22-517 limits assumed): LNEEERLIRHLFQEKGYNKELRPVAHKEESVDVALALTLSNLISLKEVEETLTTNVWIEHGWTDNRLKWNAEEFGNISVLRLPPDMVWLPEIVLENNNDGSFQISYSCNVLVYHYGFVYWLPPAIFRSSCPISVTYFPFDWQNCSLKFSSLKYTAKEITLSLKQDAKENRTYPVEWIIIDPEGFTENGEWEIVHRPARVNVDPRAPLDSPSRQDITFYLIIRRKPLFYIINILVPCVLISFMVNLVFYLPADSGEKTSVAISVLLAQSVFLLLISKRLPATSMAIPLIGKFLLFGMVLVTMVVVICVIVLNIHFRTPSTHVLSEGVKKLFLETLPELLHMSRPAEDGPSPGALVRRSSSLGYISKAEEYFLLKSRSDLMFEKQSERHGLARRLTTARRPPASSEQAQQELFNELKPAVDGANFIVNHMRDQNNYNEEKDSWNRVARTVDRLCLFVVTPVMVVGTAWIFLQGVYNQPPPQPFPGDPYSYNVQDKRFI

human (h) α7 nAChR = target: T5, human (h) α7 nAChR (Homo sapiens, UniProt P36544); test: Two-electrode voltage clamp, inhibition of ACh-evoked currents at hα7 nAChR in Xenopus oocytes; type: cell-based; settings: compound 100 µM; currents activated by 100 μM ACh; ratio ACh + compound to ACh alone; mean ± SD, n = 6–11
T5 construct: Jon Lindstrom (clone); host or cells: Xenopus laevis oocytes, cRNA injected
T5 sequence (P36544 23-502): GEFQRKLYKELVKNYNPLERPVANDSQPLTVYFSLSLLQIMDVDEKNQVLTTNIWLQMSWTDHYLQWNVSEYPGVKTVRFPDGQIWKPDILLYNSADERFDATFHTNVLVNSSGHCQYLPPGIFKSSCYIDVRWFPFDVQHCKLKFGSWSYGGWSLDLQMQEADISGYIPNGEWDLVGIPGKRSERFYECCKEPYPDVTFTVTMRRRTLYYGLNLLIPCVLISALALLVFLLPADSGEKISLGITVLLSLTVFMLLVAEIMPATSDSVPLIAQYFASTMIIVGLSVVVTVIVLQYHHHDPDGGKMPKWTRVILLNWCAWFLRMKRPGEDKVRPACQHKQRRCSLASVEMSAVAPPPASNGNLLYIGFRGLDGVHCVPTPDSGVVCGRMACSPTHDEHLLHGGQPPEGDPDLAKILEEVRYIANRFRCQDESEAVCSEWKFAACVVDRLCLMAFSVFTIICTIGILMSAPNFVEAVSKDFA
Experimental: as §1, §2, §3, §4, §5

human (h) α9α10 nAChR = target: T6, human (h) α9α10 nAChR (Homo sapiens, UniProt Q9GZZ6+Q9UGM1); test: Two-electrode voltage clamp, inhibition of ACh-evoked currents at hα9α10 nAChR in Xenopus oocytes; type: cell-based; settings: for Relative current amplitude (h)α9α10: compound 100 µM, currents activated by 6 μM ACh, ratio ACh + compound to ACh alone, mean ± SD, n = 6–11
T6 construct: host or cells: Xenopus laevis oocytes, cRNA injected
T6 sequence (Q9UGM1 26-479 limits assumed): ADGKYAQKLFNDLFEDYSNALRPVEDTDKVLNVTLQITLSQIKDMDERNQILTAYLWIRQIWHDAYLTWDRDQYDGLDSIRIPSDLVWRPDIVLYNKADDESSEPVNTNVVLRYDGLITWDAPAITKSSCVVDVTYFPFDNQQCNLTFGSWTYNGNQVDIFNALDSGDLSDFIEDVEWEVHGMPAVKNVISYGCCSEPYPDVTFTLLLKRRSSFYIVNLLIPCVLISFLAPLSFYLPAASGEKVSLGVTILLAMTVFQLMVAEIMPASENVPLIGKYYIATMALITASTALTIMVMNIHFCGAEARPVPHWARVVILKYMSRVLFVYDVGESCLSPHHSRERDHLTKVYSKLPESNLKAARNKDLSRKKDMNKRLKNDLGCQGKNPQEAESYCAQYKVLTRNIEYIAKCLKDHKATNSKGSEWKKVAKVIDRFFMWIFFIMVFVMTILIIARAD
T6 sequence (Q9GZZ6 25-450): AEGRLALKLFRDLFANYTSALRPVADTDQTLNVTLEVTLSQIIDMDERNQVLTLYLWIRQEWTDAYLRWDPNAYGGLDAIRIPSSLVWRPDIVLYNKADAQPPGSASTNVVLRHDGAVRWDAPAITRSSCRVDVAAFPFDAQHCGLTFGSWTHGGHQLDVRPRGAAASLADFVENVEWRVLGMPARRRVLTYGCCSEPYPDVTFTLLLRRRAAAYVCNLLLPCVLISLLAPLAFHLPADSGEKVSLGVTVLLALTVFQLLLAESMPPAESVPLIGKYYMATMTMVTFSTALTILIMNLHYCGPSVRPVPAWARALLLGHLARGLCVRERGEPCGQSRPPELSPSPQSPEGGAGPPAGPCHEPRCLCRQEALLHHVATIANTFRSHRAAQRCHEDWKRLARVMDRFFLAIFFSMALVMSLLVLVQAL
Experimental: as §1, §2, §3, §4, §5

human (h) α1β1γδ nAChR = target: T7, human (h) α1β1γδ nAChR (Homo sapiens, UniProt P02708+P07510+P11230+Q07001); test: Two-electrode voltage clamp, inhibition of ACh-evoked currents at hα1β1γδ nAChR in Xenopus oocytes; type: cell-based; settings: for Relative current amplitude (h)α1β1γδ: compound 100 µM, currents activated by 5 μM ACh, ratio ACh + compound to ACh alone, mean ± SD, n = 6–11
T7 construct: host or cells: Xenopus laevis oocytes, cRNA injected
Experimental: as §1, §2, §3, §4, §5

human (h) α1β1εδ nAChR [2] = target: T4, human (h) α1β1εδ nAChR; settings: read-out: half-maximal inhibitory concentration (IC50), ACh-evoked currents mediated by hα1β1εδ; cited from earlier work
NF-kB = tested on: NF-kB; parameters: method as in doi:10.1016/j.tet.2012.09.038; settings: cited from earlier work
Balamus amphitrite = tested on: Balamus amphitrite; parameters: method as in doi:10.1016/j.tetlet.2015.12.026; settings: cited from earlier work
BEL-7047 cell lines = tested on: BEL-7047 cell lines; parameters: method as in doi:10.1016/j.tet.2008.11.078; settings: read-out: IC50, cytotoxicity against BEL-7047 cell lines; cited from earlier work
[3] = compound 100 µM (Figure 3, Table S1)
[4] = compound 100 µM (Figure 3, Table S1), 100 µM

Compound	Relative current amplitude (h)α3β2 (human (h) α3β2 nAChR)	Relative current amplitude (h)α4β2 (human (h) α4β2 nAChR)	Relative current amplitude (h)α3β4 (human (h) α3β4 nAChR)	Relative current amplitude (h) α1β1εδ (human (h) α1β1εδ nAChR [1])	Relative current amplitude (h)α7 (human (h) α7 nAChR)	Relative current amplitude (h)α9α10 (human (h) α9α10 nAChR)	Relative current amplitude (h)α1β1γδ (human (h) α1β1γδ nAChR)	other results
trisorbicillone A								IC50 (HL60 cell lines; read-out: IC50, cytotoxic against HL60 cell lines): 3140 nM
COC(=O)[C@@H](Cc1ccccc1)NC(=O)[C@@H](NC(=O)[C@H](NC(=O)[C@@H](N)Cc1c[nH]c2ccccc12)C(C)C)C(C)C [Compound 2, psegynamide B] (H-W[dV]V[dF]-OMe)	0.236 ± 0.069	0.301 ± 0.039	0.071 ± 0.028	0.024 ± 0.011	0.566 ± 0.072	0.075 ± 0.036	0.017 ± 0.014	inhibition at 100 µM (human (h) α3β2 nAChR; [3]): > 70%; inhibition at 100 µM (human (h) α4β2 nAChR; [3]): > 70%; inhibition at 100 µM (human (h) α3β4 nAChR; [3]): > 70%; inhibition of ACh-evoked currents, α1β1εδ (human (h) α1β1εδ nAChR [1]; [4]): > 70%; inhibition at 100 µM (human (h) α9α10 nAChR; [3]): > 70%; inhibition of ACh-evoked currents, α1β1γδ (human (h) α1β1γδ nAChR; [4]): > 70% and > 98%
α-conotoxin GI (ECCNPACGRHYSC; ends and bridges not checked; cysteine pairing not given here; UniProt X5I9Y2 50-62, looked up)								IC50 (human (h) α1β1εδ nAChR [2]): 20 nM
CC(=O)c1cc(C)c(O)c(C[C@]23Cc4c(O)c(C(C)=O)cc(C)c4O[C@@]2(O)[C@@H](C)OC3=O)c1O [penilactone A]								NF-kB inhibitory rate (NF-kB): 40%
CC(C)C(NC(=O)C(N)Cc1c[nH]c2ccccc12)C(=O)NC(C(=O)NC(Cc1ccccc1)C(=O)O)C(C)C (stereo not shown) [Compound 1, psegynamide A] (H-WVVF-OH; configuration not given here)	0.435 ± 0.071	0.637± 0.053	0.462 ± 0.069	0.190 ± 0.056	0.293 ± 0.074	0.103 ± 0.027	0.664 ± 0.062	
CC(C)[C@H](NC(=O)[C@H](NC(=O)[C@@H]1Cc2c([nH]c3ccccc23)CN1)C(C)C)C(=O)N[C@H](Cc1ccccc1)C(=O)O [Compound 4, psegynamide D]	0.924 ± 0.069	0.972 ± 0.057	0.670 ± 0.049	0.757 ± 0.065	0.228 ± 0.049	0.824 ± 0.064	0.985 ± 0.019	
COC(=O)[C@@H](Cc1ccc(O)cc1)NC(=O)[C@@H](NC(=O)[C@H](NC(=O)[C@@H]1Cc2c([nH]c3ccccc23)CN1)C(C)C)C(C)C [Compound 6, psegynamide F] (H-[Tpi][dV]V[dY]-OMe)	0.579 ± 0.077	0.938 ± 0.076	0.777 ± 0.053	0.618 ± 0.047	0.838 ± 0.066	0.760 ± 0.062	0.802 ± 0.096	
trichobotryside A								EC50, inhibiting the larvae settlement of Balamus amphitrite (Balamus amphitrite): 2.5 µg/mL
C[C@@H]1C=CC(=O)[C@@]2(C)CC[C@@H]3[C@@H]4[C@@](C)(CC[C@@]4(C)CO)C[C@@]132 [conidiogenone C]								IC50 (HL60 cell lines; read-out: IC50, cytotoxicity against HL60 cell lines): 38 nM; IC50 (BEL-7047 cell lines): 900 nM
CC(C)[C@H](NC(=O)[C@H](NC(=O)[C@@H](N)Cc1c[nH]c2ccccc12)C(C)C)C(=O)N[C@H](Cc1ccc(O)cc1)C(=O)O [Compound 3, psegynamide C] (H-W[dV]V[dY]-OH)	0.451 ± 0.056	0.793 ± 0.078	0.675 ± 0.040	0.648 ± 0.067	0.368 ± 0.088	0.509 ± 0.041	0.861 ± 0.084	
COC(=O)[C@@H](Cc1ccccc1)NC(=O)[C@@H](NC(=O)[C@H](NC(=O)[C@@H]1Cc2c([nH]c3ccccc23)CN1)C(C)C)C(C)C [Compound 5, psegynamide E]	0.656 ± 0.074	0.837 ± 0.061	0.656 ± 0.051	0.392 ± 0.069	0.399 ± 0.061	0.374 ± 0.073	0.799 ± 0.063	
CC(=O)c1cc(C)c(O)c(C[C@@]23Cc4c(O)c(C(C)=O)cc(C)c4O[C@]2(O)[C@H](CC(=O)O)OC3=O)c1O [penilactone B]								NF-kB inhibitory rate (NF-kB): 40%
